Source: patent US7312245B2 (priority 2001, dated 2007)
Where two headings read alike, the source gives them in different places.

What was measured:
Assay type in all cases: in vivo
Pyricularia oryzae [1] = conditions: granules applied to water surface at 3 kg/10 ares; rice Koshihikari; inoculated 30 days after application; lesions checked after 1 week
Pyricularia oryzae [2] = conditions: spray application of wettable powder diluted to 500 ppm; rice Koshihikari 2-leaf stage; spray-inoculated with Pyricularia oryzae spores; examined after 7 days
Pyricularia oryzae [3] = conditions: nursery box treated with granules 50 g per box; rice Koshihikari; inoculated 30 days after transplantation; lesions counted after 1 week

CC(CNC(=O)c1ccccc1)NC(=O)c1ccccc1 (stereo not drawn) [Formula (7), reference compound]
Grade of Effect (preventive value, rice blast controlling effect) (Pyricularia oryzae [1]): C (less than 50%)
Grade of Effect (preventive value, rice blast controlling effect) (Pyricularia oryzae [2]): D (less than 50%)
Grade of Effect (preventive value, rice blast controlling effect) (Pyricularia oryzae [3]): C (less than 50%)

CCC(CNC(=O)Oc1ccccc1)NC(=O)OC (stereo not drawn) [Formula (8), reference compound]
Grade of Effect (preventive value, rice blast controlling effect) (Pyricularia oryzae [1]): C (less than 50%)
Grade of Effect (preventive value, rice blast controlling effect) (Pyricularia oryzae [2]): D (less than 50%)
Grade of Effect (preventive value, rice blast controlling effect) (Pyricularia oryzae [3]): C (less than 50%)

COC(=O)NC(C)CNC(=O)c1ccc(Cl)cc1 (stereo not drawn) [compound 4]
Grade of Effect (preventive value, rice blast controlling effect) (Pyricularia oryzae [1]): A (From 80% to 100%)
Grade of Effect (preventive value, rice blast controlling effect) (Pyricularia oryzae [2]): A (100%)
Grade of Effect (preventive value, rice blast controlling effect) (Pyricularia oryzae [3]): A (From 80% to 100%)

COC(=O)NC(CNC(=O)c1ccccc1)C(C)C (stereo not drawn) [compound 26]
Grade of Effect (preventive value, rice blast controlling effect) (Pyricularia oryzae [1]): A (From 80% to 100%)
Grade of Effect (preventive value, rice blast controlling effect) (Pyricularia oryzae [2]): A (100%)
Grade of Effect (preventive value, rice blast controlling effect) (Pyricularia oryzae [3]): A (From 80% to 100%)

COC(=O)NC(CNC(=O)c1ccc(C)cc1)C(C)C (stereo not drawn) [compound 30]
Grade of Effect (preventive value, rice blast controlling effect) (Pyricularia oryzae [1]): A (From 80% to 100%)
Grade of Effect (preventive value, rice blast controlling effect) (Pyricularia oryzae [2]): A (100%)
Grade of Effect (preventive value, rice blast controlling effect) (Pyricularia oryzae [3]): A (From 80% to 100%)

COC(=O)NC(CNC(=O)c1ccccc1)c1ccccc1 (stereo not drawn) [compound 66, N-(methoxycarbonyl)-N′-benzoyl-1-phenyl-1,2-ethylenediamine]
Grade of Effect (preventive value, rice blast controlling effect) (Pyricularia oryzae [1]): A (From 80% to 100%)
Grade of Effect (preventive value, rice blast controlling effect) (Pyricularia oryzae [2]): A (100%)
Grade of Effect (preventive value, rice blast controlling effect) (Pyricularia oryzae [3]): A (From 80% to 100%)

Cc1ccc(C(=O)NCC(C)NC(=O)OC(C)C)cc1 (stereo not drawn) [compound 215]
Grade of Effect (preventive value, rice blast controlling effect) (Pyricularia oryzae [1]): A (From 80% to 100%)
Grade of Effect (preventive value, rice blast controlling effect) (Pyricularia oryzae [2]): A (100%)
Grade of Effect (preventive value, rice blast controlling effect) (Pyricularia oryzae [3]): A (From 80% to 100%)

CC(CNC(=O)c1ccc(C(C)(C)C)cc1)NC(=O)OC(C)C (stereo not drawn) [compound 216]
Grade of Effect (preventive value, rice blast controlling effect) (Pyricularia oryzae [1]): A (From 80% to 100%)
Grade of Effect (preventive value, rice blast controlling effect) (Pyricularia oryzae [2]): A (100%)
Grade of Effect (preventive value, rice blast controlling effect) (Pyricularia oryzae [3]): A (From 80% to 100%)

CC(C)OC(=O)NC(CNC(=O)c1ccccc1)C(C)C (stereo not drawn) [compound 236]
Grade of Effect (preventive value, rice blast controlling effect) (Pyricularia oryzae [1]): A (From 80% to 100%)
Grade of Effect (preventive value, rice blast controlling effect) (Pyricularia oryzae [2]): A (100%)
Grade of Effect (preventive value, rice blast controlling effect) (Pyricularia oryzae [3]): A (From 80% to 100%)

CC(C)OC(=O)NC(CNC(=O)c1ccc(Cl)cc1)C(C)C (stereo not drawn) [compound 237]
Grade of Effect (preventive value, rice blast controlling effect) (Pyricularia oryzae [1]): A (From 80% to 100%)
Grade of Effect (preventive value, rice blast controlling effect) (Pyricularia oryzae [2]): A (100%)
Grade of Effect (preventive value, rice blast controlling effect) (Pyricularia oryzae [3]): A (From 80% to 100%)

CC(C)OC(=O)NC(CNC(=O)c1ccc(Cl)c(Cl)c1)C(C)C (stereo not drawn) [compound 238]
Grade of Effect (preventive value, rice blast controlling effect) (Pyricularia oryzae [1]): A (From 80% to 100%)
Grade of Effect (preventive value, rice blast controlling effect) (Pyricularia oryzae [2]): A (100%)
Grade of Effect (preventive value, rice blast controlling effect) (Pyricularia oryzae [3]): A (From 80% to 100%)

Cc1ccccc1C(=O)NCC(NC(=O)OC(C)C)C(C)C (stereo not drawn) [compound 239]
Grade of Effect (preventive value, rice blast controlling effect) (Pyricularia oryzae [1]): A (From 80% to 100%)
Grade of Effect (preventive value, rice blast controlling effect) (Pyricularia oryzae [2]): A (100%)
Grade of Effect (preventive value, rice blast controlling effect) (Pyricularia oryzae [3]): A (From 80% to 100%)

Cc1ccc(C(=O)NCC(NC(=O)OC(C)C)C(C)C)cc1 (stereo not drawn) [compound 240]
Grade of Effect (preventive value, rice blast controlling effect) (Pyricularia oryzae [1]): A (From 80% to 100%)
Grade of Effect (preventive value, rice blast controlling effect) (Pyricularia oryzae [2]): A (100%)
Grade of Effect (preventive value, rice blast controlling effect) (Pyricularia oryzae [3]): A (From 80% to 100%)

CCc1ccc(C(=O)NCC(NC(=O)OC(C)C)C(C)C)cc1 (stereo not drawn) [compound 241]
Grade of Effect (preventive value, rice blast controlling effect) (Pyricularia oryzae [1]): A (From 80% to 100%)
Grade of Effect (preventive value, rice blast controlling effect) (Pyricularia oryzae [2]): A (100%)
Grade of Effect (preventive value, rice blast controlling effect) (Pyricularia oryzae [3]): A (From 80% to 100%)

CC(C)OC(=O)NC(CNC(=O)c1ccc2ccccc2c1)C(C)C (stereo not drawn) [compound 242]
Grade of Effect (preventive value, rice blast controlling effect) (Pyricularia oryzae [1]): A (From 80% to 100%)
Grade of Effect (preventive value, rice blast controlling effect) (Pyricularia oryzae [2]): A (100%)
Grade of Effect (preventive value, rice blast controlling effect) (Pyricularia oryzae [3]): A (From 80% to 100%)

Cc1ccc(C(=O)NCC(NC(=O)OC(C)C)C(C)C)s1 (stereo not drawn) [compound 243]
Grade of Effect (preventive value, rice blast controlling effect) (Pyricularia oryzae [1]): A (From 80% to 100%)
Grade of Effect (preventive value, rice blast controlling effect) (Pyricularia oryzae [2]): A (100%)
Grade of Effect (preventive value, rice blast controlling effect) (Pyricularia oryzae [3]): A (From 80% to 100%)

Cc1ccc(C(=O)NCC(C)(NC(=O)OC(C)C)C(C)C)cc1 (stereo not drawn) [compound 245]
Grade of Effect (preventive value, rice blast controlling effect) (Pyricularia oryzae [1]): A (From 80% to 100%)
Grade of Effect (preventive value, rice blast controlling effect) (Pyricularia oryzae [2]): A (100%)
Grade of Effect (preventive value, rice blast controlling effect) (Pyricularia oryzae [3]): A (From 80% to 100%)

Cc1ccc(C(=O)NC(C)C(NC(=O)OC(C)C)C(C)C)cc1 (stereo not drawn) [compound 246]
Grade of Effect (preventive value, rice blast controlling effect) (Pyricularia oryzae [1]): A (From 80% to 100%)
Grade of Effect (preventive value, rice blast controlling effect) (Pyricularia oryzae [2]): A (100%)
Grade of Effect (preventive value, rice blast controlling effect) (Pyricularia oryzae [3]): A (From 80% to 100%)

CC(C)OC(=O)NC(C(C)C)C(C)NC(=O)c1ccc(Cl)cc1 (stereo not drawn) [compound 247]
Grade of Effect (preventive value, rice blast controlling effect) (Pyricularia oryzae [1]): A (From 80% to 100%)
Grade of Effect (preventive value, rice blast controlling effect) (Pyricularia oryzae [2]): A (100%)
Grade of Effect (preventive value, rice blast controlling effect) (Pyricularia oryzae [3]): A (From 80% to 100%)

Cc1ccc(C(=O)NCC(NC(=O)OC(C)C)c2ccccc2)cc1 (stereo not drawn) [compound 279]
Grade of Effect (preventive value, rice blast controlling effect) (Pyricularia oryzae [1]): A (From 80% to 100%)
Grade of Effect (preventive value, rice blast controlling effect) (Pyricularia oryzae [2]): A (100%)
Grade of Effect (preventive value, rice blast controlling effect) (Pyricularia oryzae [3]): A (From 80% to 100%)

Cc1ccc(C(=O)NCC(NC(=O)OC(C)C)c2ccc(Cl)cc2)cc1 (stereo not drawn) [compound 284]
Grade of Effect (preventive value, rice blast controlling effect) (Pyricularia oryzae [1]): A (From 80% to 100%)
Grade of Effect (preventive value, rice blast controlling effect) (Pyricularia oryzae [2]): A (100%)
Grade of Effect (preventive value, rice blast controlling effect) (Pyricularia oryzae [3]): A (From 80% to 100%)

Cc1ccc(C(=O)NCC(Cc2ccccc2)NC(=O)OC(C)C)cc1 (stereo not drawn) [compound 289]
Grade of Effect (preventive value, rice blast controlling effect) (Pyricularia oryzae [1]): A (From 80% to 100%)
Grade of Effect (preventive value, rice blast controlling effect) (Pyricularia oryzae [2]): A (100%)
Grade of Effect (preventive value, rice blast controlling effect) (Pyricularia oryzae [3]): A (From 80% to 100%)

CC(C)OC(=O)NC(CNC(=O)c1ccc(Cl)cc1)Cc1ccccc1 (stereo not drawn) [compound 290, N-(4-chlorobenzoyl)-N′-(i-propoxycarbonyl)-3-phenyl-1,2-propanediamine]
Grade of Effect (preventive value, rice blast controlling effect) (Pyricularia oryzae [1]): A (From 80% to 100%)
Grade of Effect (preventive value, rice blast controlling effect) (Pyricularia oryzae [2]): A (100%)
Grade of Effect (preventive value, rice blast controlling effect) (Pyricularia oryzae [3]): A (From 80% to 100%)

CC(C)COC(=O)NC(CNC(=O)c1ccc(Cl)cc1)C(C)C (stereo not drawn) [compound 384]
Grade of Effect (preventive value, rice blast controlling effect) (Pyricularia oryzae [1]): A (From 80% to 100%)
Grade of Effect (preventive value, rice blast controlling effect) (Pyricularia oryzae [2]): A (100%)
Grade of Effect (preventive value, rice blast controlling effect) (Pyricularia oryzae [3]): A (From 80% to 100%)

Cc1ccc(C(=O)NCC(NC(=O)OCC(C)C)C(C)C)cc1 (stereo not drawn) [compound 387]
Grade of Effect (preventive value, rice blast controlling effect) (Pyricularia oryzae [1]): A (From 80% to 100%)
Grade of Effect (preventive value, rice blast controlling effect) (Pyricularia oryzae [2]): A (100%)
Grade of Effect (preventive value, rice blast controlling effect) (Pyricularia oryzae [3]): A (From 80% to 100%)

Cc1ccc(C(=O)NCC(NC(=O)OC(C)(C)C)C(C)C)cc1 (stereo not drawn) [compound 464]
Grade of Effect (preventive value, rice blast controlling effect) (Pyricularia oryzae [1]): B (50% or more and less than 80%)
Grade of Effect (preventive value, rice blast controlling effect) (Pyricularia oryzae [2]): B (80% or more and less than 100%)
Grade of Effect (preventive value, rice blast controlling effect) (Pyricularia oryzae [3]): B (50% or more and less than 80%)

Cc1ccc(C(=O)NCC(C)(NC(=O)OC(C)(C)C)C(C)C)cc1 (stereo not drawn) [compound 469]
Grade of Effect (preventive value, rice blast controlling effect) (Pyricularia oryzae [1]): B (50% or more and less than 80%)
Grade of Effect (preventive value, rice blast controlling effect) (Pyricularia oryzae [2]): B (80% or more and less than 100%)
Grade of Effect (preventive value, rice blast controlling effect) (Pyricularia oryzae [3]): B (50% or more and less than 80%)

Cc1ccc(C(=O)NC(C)C(NC(=O)OC(C)(C)C)C(C)C)cc1 (stereo not drawn) [compound 470]
Grade of Effect (preventive value, rice blast controlling effect) (Pyricularia oryzae [1]): A (From 80% to 100%)
Grade of Effect (preventive value, rice blast controlling effect) (Pyricularia oryzae [2]): A (100%)
Grade of Effect (preventive value, rice blast controlling effect) (Pyricularia oryzae [3]): A (From 80% to 100%)

CC(C)C(NC(=O)OC(C)(C)C)C(C)NC(=O)c1ccc(Cl)cc1 (stereo not drawn) [compound 471]
Grade of Effect (preventive value, rice blast controlling effect) (Pyricularia oryzae [1]): A (From 80% to 100%)
Grade of Effect (preventive value, rice blast controlling effect) (Pyricularia oryzae [2]): A (100%)
Grade of Effect (preventive value, rice blast controlling effect) (Pyricularia oryzae [3]): A (From 80% to 100%)

Cc1ccc(C(=O)NCC(NC(=O)OC(C)(C)C)c2ccccc2)cc1 (stereo not drawn) [compound 504, N-(t-butoxycarbonyl)-N′-(4-methylbenzoyl)-1-phenyl-1,2-ethylenediamine]
Grade of Effect (preventive value, rice blast controlling effect) (Pyricularia oryzae [1]): B (50% or more and less than 80%)
Grade of Effect (preventive value, rice blast controlling effect) (Pyricularia oryzae [2]): B (80% or more and less than 100%)
Grade of Effect (preventive value, rice blast controlling effect) (Pyricularia oryzae [3]): B (50% or more and less than 80%)

CC(C)C(CNC(=O)c1ccccc1)NC(=O)Oc1ccccc1 (stereo not drawn) [compound 526]
Grade of Effect (preventive value, rice blast controlling effect) (Pyricularia oryzae [1]): A (From 80% to 100%)
Grade of Effect (preventive value, rice blast controlling effect) (Pyricularia oryzae [2]): A (100%)
Grade of Effect (preventive value, rice blast controlling effect) (Pyricularia oryzae [3]): A (From 80% to 100%)

Cc1ccc(C(=O)NCC(NC(=O)Oc2ccccc2)C(C)C)cc1 (stereo not drawn) [compound 530]
Grade of Effect (preventive value, rice blast controlling effect) (Pyricularia oryzae [1]): A (From 80% to 100%)
Grade of Effect (preventive value, rice blast controlling effect) (Pyricularia oryzae [2]): A (100%)
Grade of Effect (preventive value, rice blast controlling effect) (Pyricularia oryzae [3]): A (From 80% to 100%)

CC(C)C(CNC(=O)c1ccccc1)NC(=O)OCc1ccccc1 (stereo not drawn) [compound 596]
Grade of Effect (preventive value, rice blast controlling effect) (Pyricularia oryzae [1]): A (From 80% to 100%)
Grade of Effect (preventive value, rice blast controlling effect) (Pyricularia oryzae [2]): A (100%)
Grade of Effect (preventive value, rice blast controlling effect) (Pyricularia oryzae [3]): A (From 80% to 100%)

Cc1ccc(C(=O)NCC(NC(=O)OCc2ccccc2)C(C)C)cc1 (stereo not drawn) [compound 600]
Grade of Effect (preventive value, rice blast controlling effect) (Pyricularia oryzae [1]): A (From 80% to 100%)
Grade of Effect (preventive value, rice blast controlling effect) (Pyricularia oryzae [2]): A (100%)
Grade of Effect (preventive value, rice blast controlling effect) (Pyricularia oryzae [3]): A (From 80% to 100%)
